The subject of assay [1] is BCL-2-C (DNA, i motif) CAGCCCCGCTCCCGCCCCCTTCCTCCCGCGCCCGCCCCT
The assay can be described thus: thiazole orange displacement (fluorescence). To be noted: K+ (60 mM K-cacodylate); pH 6 (folded at pH 4.8); 0.5 μM thiazole orange displaced, 0.25 μM DNA.

The test system of assay [2] is BCL-2-G (DNA, G4) AGGGGCGGGCGCGGGAGGAAGGGGGCGGGAGCGGGGCGT
Kind of assay: thiazole orange displacement (fluorescence). To be noted: K+ (60 mM K-cacodylate); pH 7; 0.5 μM thiazole orange displaced, 0.25 μM DNA.

The subject of assay [3] is c-MYC-C (DNA, i motif) TCCCCACCTTCCCCACCCTCCCCACCCTCCCCA
Kind of assay: thiazole orange displacement (fluorescence). To be noted: K+ (60 mM K-cacodylate); pH 6 (folded at pH 4.8); 0.5 μM thiazole orange displaced, 0.25 μM DNA.

Assay [4] deals with c-MYC-G (DNA, G4) TGGGGAGGGTGGGGAGGGTGGGGAAGGTGGGGA
Kind of assay: thiazole orange displacement (fluorescence). To be noted: K+ (60 mM K-cacodylate); pH 7; 0.5 μM thiazole orange displaced, 0.25 μM DNA.

Assay [5] deals with h-TELO-C (DNA, i motif) TAACCCTAACCCTAACCCTAACCC
The assay can be described thus: thiazole orange displacement (fluorescence). To be noted: K+ (60 mM K-cacodylate); pH 6; thiazole orange displaced, 0.25 μM DNA.

Assay [6] relates to h-TELO-G (DNA, G4) GGGTTAGGGTTAGGGTTAGGG
The assay can be described thus: thiazole orange displacement (fluorescence). To be noted: K+ (60 mM K-cacodylate); pH 7; thiazole orange displaced, 0.25 μM DNA.

Assay [7] deals with dual labeled ds DNA (DNA, hairpin, hexaethylene glycol (HEG) linker between 10 and 11) TATAGCTATATATAGCTATA
The assay can be described thus: FRET melting. To be noted: K+ (60 mM K-cacodylate), pH 6 (Table 1; also pH 7), 1 μM compound, 100 nM DNA.

For assay [8], the system named is dual labeled BCL-2-C (DNA, i motif) CAGCCCCGCTCCCGCCCCCTTCCTCCCGCGCCCGCCCCT
Kind of assay: FRET melting. To be noted: K+ (60 mM K-cacodylate); pH 6 (folded at pH 4.8); 1 μM compound, 100 nM DNA.

Assay [9] deals with 5′-TAMRA-BCL-2-C (DNA, i motif) CAGCCCCGCTCCCGCCCCCTTCCTCCCGCGCCCGCCCCT
Kind of assay: fluorescence quenching titration. To be noted: K+ (60 mM K-cacodylate); pH 6 (folded at pH 4.8), 25 °C, 250 nM DNA.

Assay [10] deals with 5′-TAMRA-c-MYC-C (DNA, i motif) TCCCCACCTTCCCCACCCTCCCCACCCTCCCCA
Kind of assay: fluorescence quenching titration. To be noted: K+ (60 mM K-cacodylate); pH 6 (folded at pH 4.8), 25 °C, 250 nM DNA.

In assay [11] the test system is 5′-TAMRA-BCL-2-G (DNA, G4) AGGGGCGGGCGCGGGAGGAAGGGGGCGGGAGCGGGGCGT
Kind of assay: fluorescence quenching titration. To be noted: K+ (60 mM K-cacodylate); pH 7, 25 °C, 250 nM DNA.

Assay [12] has as its system 5′-TAMRA-c-MYC-G (DNA, G4) TGGGGAGGGTGGGGAGGGTGGGGAAGGTGGGGA
Kind of assay: fluorescence quenching titration. To be noted: K+ (60 mM K-cacodylate); pH 7, 25 °C, 250 nM DNA.

The subject of assay [13] is 5′-TAMRA-ds DNA (DNA, hairpin, hexaethylene glycol (HEG) linker between 10 and 11) TATAGCTATATATAGCTATA
Kind of assay: fluorescence quenching titration. To be noted: K+ (60 mM K-cacodylate); pH 7, 25 °C, 250 nM DNA; up to 30 μM.

The subject of assay [14] is 3′-TAMRA-BCL-2-C (DNA, i motif) CAGCCCCGCTCCCGCCCCCTTCCTCCCGCGCCCGCCCCT
Kind of assay: fluorescence quenching titration. To be noted: K+ (60 mM K-cacodylate); pH 6 (folded at pH 4.8), 25 °C, 250 nM DNA.

Assay [15] has as its system 3′-TAMRA-c-MYC-C (DNA, i motif) TCCCCACCTTCCCCACCCTCCCCACCCTCCCCA
The assay can be described thus: fluorescence quenching titration. To be noted: K+ (60 mM K-cacodylate); pH 6 (folded at pH 4.8), 25 °C, 250 nM DNA.

In assay [16] the test system is 3′-TAMRA-BCL-2-G (DNA, G4) AGGGGCGGGCGCGGGAGGAAGGGGGCGGGAGCGGGGCGT
Kind of assay: fluorescence quenching titration. To be noted: K+ (60 mM K-cacodylate); pH 7, 25 °C, 250 nM DNA.

Assay [17] relates to 3′-TAMRA-c-MYC-G (DNA, G4) TGGGGAGGGTGGGGAGGGTGGGGAAGGTGGGGA
Kind of assay: fluorescence quenching titration. To be noted: K+ (60 mM K-cacodylate); pH 7, 25 °C, 250 nM DNA.

Assay [18] concerns dual labeled c-MYC-G (DNA, G4) TGGGGAGGGTGGGGAGGGTGGGGAAGGTGGGGA
The assay can be described thus: FRET melting. To be noted: K+ (60 mM K-cacodylate); pH 7; 1 μM compound, 100 nM DNA.

Molecules are shown by their SMILES. A value given as a limit tells only on which side of the number the result lay.

For the molecule `O=C(NCc1cn(-c2ccc(NC(=O)[C@@H]3CCCN3)cc2)nn1)c1cccc(C(=O)NCc2cn(-c3ccc(NC(=O)[C@@H]4CCCN4)cc3)nn2)n1`, the DC50 worked out at 7.9 ± 5% μM in assay [1]; 9 ± 5% μM in assay [2]; 8.4 ± 5% μM in assay [3]; 10.2 ± 5% μM in [4]; 10 ± 5% μM in assay [5]; 8.4 ± 5% μM in [6].

`CN(C)CCCOc1cc(C(=O)NCc2cn(-c3ccc(NC(=O)[C@@H]4CCCN4)cc3)nn2)nc(C(=O)NCc2cn(-c3ccc(NC(=O)[C@@H]4CCCN4)cc3)nn2)c1`: the ΔT m in assay [7] (no shift up to 10 μM) stood at 0.94 ± 1 °C; in assay [8] it was 29 ± 1 °C. Besides, the K d in [9] was 0.3 ± 5% μM; in assay [10], 2.4 ± 5% μM; in assay [11], 7.2 ± 5% μM; in assay [12], 12.5 ± 5% μM; in assay [13], above 25 µM; in assay [14], 2.1 ± 5% μM. In addition, the K d in [15] was 5.9 ± 5% μM; in assay [16] it was 11.5 ± 5% μM; in assay [17], 16.7 ± 5% μM. The DC50 is listed as 0.9 ± 5% μM in [1]; 5.7 ± 5% μM in assay [2]; 2.7 ± 5% μM in assay [3]; 8.5 ± 5% μM in assay [4]; 4 ± 5% μM in assay [5]; 9.8 ± 5% μM in assay [6].

Regarding `CN(C)CCCOc1cc(C(=O)NCc2cn(-c3cccc(NC(=O)[C@@H]4CCCN4)c3)nn2)nc(C(=O)NCc2cn(-c3cccc(NC(=O)[C@@H]4CCCN4)c3)nn2)c1`, the ΔT m in assay [7] (no shift up to 15 μM) stood at 1.1 ± 1 °C; in [18], 16 ± 1 °C. The K d is 5.8 ± 5% μM in assay [9]; 9.5 ± 5% μM in [10]; 1.9 ± 5% μM in assay [11]; 1.3 ± 5% μM in [12]; above 25 µM in [13]; 10.5 ± 5% μM in [14]. Further, the K d in [15] worked out at 15.1 ± 5% μM; in assay [16], 4.5 ± 5% μM; in assay [17], 4.1 ± 5% μM. The DC50 in assay [1] is 8.2 ± 5% μM; in [2] it was 2.4 ± 5% μM; in assay [3], 6.8 ± 5% μM; in [4] it was 1.3 ± 5% μM; in [5] it was above 15 µM; in assay [6], 4.7 ± 5% μM.

Values taken from PMC5674183 (2017).
